According to PubChem BioAssay AID463204 (Broad Institute, 2010):
Activity calls are given as the source filed them.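 Rule for the calls: active = AC50 no more than ten times the top concentration tested, that is within one log above it; inconclusive = flat curve fit with activity between 30% and 70%, or invalid poor fit; inactive = AC50 beyond ten times the top tested dose.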

Test system: S. cerevisiae Mot1-301 ts growth rescue, BacTiter-Glo ATP luminescence
Assay: growth rescue of Mot1-301 ts yeast, confirmation, SUMOylation pathway inhibitor project, whole organism, S. cerevisiae, Mot1-301 ts mutant, luminescence, dose retest (AID 463204);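 note: growth at restrictive 38.5 degrees C of Mot1-301 OY566 strain; actives raise luminescence by restoring growth of the ts mutant at high temperature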

Row | Compound | AC50
1 | CC(C)(C)c1ccc(CN(Cc2ccccc2)C(c2ccccn2)c2nnnn2C(C)(C)C)cc1 (stereo not given) | > 42 µM (inactive)
2 | Nc1nnc(CC(=O)N2CCCCC2)s1 | > 42 µM (inactive)
3 | Nc1cc(Cl)ccc1N1CCOCC1 | > 42 µM (inactive)
4 | CCOc1ccc(-c2c(C(=O)N/N=C/c3ccncc3)nnn2-c2nonc2N)cc1 | > 42 µM (inactive)
5 | COc1ccc(CCNC(=O)Cn2nnc(-c3ccc(N4CCOCC4)cc3)n2)cc1OC | > 42 µM (inactive)
6 | CC(Cc1ccc(O)c(O)c1)C(C)Cc1ccc(O)c(O)c1 (stereo not given) | > 42 µM (inactive)
7 | COc1cccc(NC(=O)CNC(=O)c2ccc(C)cc2)c1 | > 42 µM (inactive)
8 | CN1C(=O)c2cccc3c(Cl)ccc(c23)C1=O | > 42 µM (inactive)
9 | Cc1ccc(CC2CC(=O)N(c3ccc4c(c3)OCCO4)C2=O)cc1 (stereo not given) | > 42 µM (inactive)
10 | O=c1cnc2ccccc2n1Cc1ccccc1C(F)(F)F | > 42 µM (inactive)
11 | Cc1cc(Cl)c2oc(C(=O)NC3CCC(O)CC3)c(C)c2c1 (stereo not given) | > 42 µM (inactive)
12 | CCC1(CC)NC(=O)N(CC(=O)OCC(=O)NC(=O)c2ccccc2)C1=O | > 42 µM (inactive)
13 | CCOC(=O)CNC(=O)c1c(C)nn(C)c1Cl | > 42 µM (inactive)
14 | O=C1C2CCCCN2C(=O)N1CCCCN1CCN(c2ccccc2Oc2ccccc2)CC1 (stereo not given) | > 42 µM (inactive)
15 | Cn1c(=O)nc2n(Cc3ccccc3)c3ccccc3cc-2c1=O | > 42 µM (inactive)
16 | Cc1ccc(NC(=O)NNC(=O)Cn2nc(-c3ccccc3)c(-c3ccccc3)c(C#N)c2=O)cc1 | > 42 µM (inactive)
17 | CC(=O)c1ccc(C(=O)N2CCCC(N3CCN(c4ccc(F)cc4)CC3)C2)s1 (stereo not given) | > 42 µM (inactive)
18 | COc1ccc(CNS(=O)(=O)c2ccc3c(c2)CCN3C(=O)C2CCC2)cc1 | > 42 µM (inactive)
19 | COc1ccc(C(=O)NCCSc2ccc(C)cc2)cc1 | > 42 µM (inactive)
20 | Cc1cccc(Cn2c(C(=O)OC(C)C)cc3c2ccn3C)c1 | > 42 µM (inactive)
21 | Cn1c(CN2CCOCC2)nnc1SCC(N)=O | > 42 µM (inactive)
22 | Cc1cc(C)cc(C(=O)NC(CC(N)=O)c2ccc(N3CCC(N4CCCCC4)CC3)c([N+](=O)[O-])c2)c1 (stereo not given) | > 42 µM (inactive)

Row | Compound | AC50
23 | CCCCCCC(C)n1[nH]c(=O)c2c(C)cc(=O)[nH]c21 (stereo not given) | > 42 µM (inactive)
24 | CCOC(=O)c1sc(NC(=O)CSc2n[nH]c(-c3ccc(Cl)cc3Cl)n2)c(C#N)c1C | > 42 µM (inactive)
25 | O=C(CCN1C(=O)S/C(=C/c2ccccc2)C1=O)Nc1ccc(O)c(C(=O)O)c1 | > 42 µM (inactive)
26 | CCNC(=S)Nc1ccc(C)c(S(=O)(=O)Nc2ccccc2OC)c1 | > 42 µM (inactive)
27 | O=C(/C=C/c1ccc(Cl)cc1Cl)Nc1cccc(S(=O)(=O)NC2=NCCCCC2)c1 | > 42 µM (inactive)
28 | CC1Cc2ccccc2N1C(=O)CNc1cccc(S(=O)(=O)N2CCCC2)c1 (stereo not given) | > 42 µM (inactive)
29 | CCC1SC2=NC(C)=C(C(=O)OCCOC)C(c3ccc(C(=O)OC)cc3)N2C1=O (stereo not given) | > 42 µM (inactive)
30 | COc1ccc(NC(=S)Nc2ccccc2OC)c(OC)c1 | > 42 µM (inactive)
31 | CCN1C(=NCC(C)C)N[C@@H](c2cccc(C(F)(F)F)c2)C(C(=O)OC)=C1C | > 42 µM (inactive)
32 | Cc1ccc(S(=O)(=O)NC2CCCCCCC2)cc1 | 18.1 µM
33 | O=C(Nc1ccccc1)N1CCN(CCc2ccccc2)CC1 | > 42 µM (inactive)
34 | O=C(/C=C/c1ccc(Cl)cc1)NCc1ccncc1 | > 42 µM (inactive)
35 | CC(C)c1cccc(OCCCCN(C)C)c1 | > 42 µM (inactive)
36 | Cc1cc2nc(CCl)cc(=O)n2[nH]1 | > 42 µM (inactive)
37 | Cc1cc(Br)ccc1NC(=O)c1cnc(N2CCN(c3ccccn3)CC2)c2ccccc12 | > 42 µM (inactive)
38 | CC(OC(=O)c1cc(S(=O)(=O)N2CCOCC2)ccc1F)C(=O)NCc1ccc2c(c1)OCO2 (stereo not given) | > 42 µM (inactive)
39 | CCOC(=O)C1CCCN(C(=O)/C=C/c2ccc(Cl)cc2)C1 (stereo not given) | > 42 µM (inactive)
40 | Cc1ccc(/C(N)=N/OC(=O)/C=C/c2ccccc2)cc1 | > 42 µM (inactive)
41 | O=C(c1cc(F)ccc1F)C1CCCN(C(=O)c2ccc3nccnc3c2)C1 (stereo not given) | > 42 µM (inactive)
42 | CCCCn1c(N)c(N(CC(C)C)C(=O)CSCC(=O)Nc2cccc(C)c2)c(=O)[nH]c1=O | > 42 µM (inactive)
43 | CN(C)/C(CN1CCCCC1)=C1\N=C(c2ccccc2)OC1=O | > 42 µM (inactive)
44 | COc1ccccc1OCCSc1nc2ccccc2n1CCC(=O)O | > 42 µM (inactive)

Row | Compound | AC50
45 | CC(C)(C)NC(=O)CN(C(=O)CCC(=O)Nc1nccs1)c1ccc2c(c1)OCCO2 | > 42 µM (inactive)
46 | NC(=O)C1=C[C@@H](c2ccc(Br)cc2)C[C@@H](OCCCCO)O1 | > 42 µM (inactive)
47 | O=Cc1ccc(Oc2cccc(C(F)(F)F)c2)nc1 | > 42 µM (inactive)
48 | COC(=O)c1ccc(CSc2nc3ccccc3c(=O)n2CC(C)C)o1 | > 42 µM (inactive)
49 | CCC(C)c1ccc(S(=O)(=O)N2CCN(C(=O)COc3ccc4c(C)cc(=O)oc4c3)CC2)cc1 (stereo not given) | > 42 µM (inactive)
50 | Oc1c(Br)cc(Br)cc1/C=N/n1c(-c2ccccc2)n[nH]c1=S | 26.2 µM
51 | Cn1cc(C(=O)Cc2ccccc2)c2ccccc21 | > 42 µM (inactive)
52 | COc1cc(S(=O)(=O)N2CCN(c3ccccc3)CC2)ccc1F | > 42 µM (inactive)
53 | COc1cccc(C(=O)NCc2ccc(-c3nc4ccccc4s3)cc2)c1 | > 42 µM (inactive)
54 | Cc1sc2ncn(C(C)C(=O)OC3CCCCC3)c(=O)c2c1C (stereo not given) | > 42 µM (inactive)
55 | CCOc1ccc(NC(=O)CC2C(=O)N(c3ccccc3)C(=S)N2Cc2ccccn2)cc1 (stereo not given) | > 42 µM (inactive)
56 | O=C(Nc1ccccc1F)C1CCN(C(=O)Cc2ccccc2)CC1 | > 42 µM (inactive)
57 | Cc1ccc(N(CC(=O)NCCc2ccc(Cl)cc2)S(=O)(=O)c2c(C)noc2C)cc1 | > 42 µM (inactive)
58 | Cc1ccc(Cn2c(NCCc3ccccc3)nc3c2c(=O)n(C)c(=O)n3C)cc1 | > 42 µM (inactive)
59 | COc1cc(C(C2=C(O)CC(C)(C)CC2=O)C2C(=O)CC(C)(C)CC2=O)cc(OC)c1OC (stereo not given) | > 42 µM (inactive)
60 | CC(=O)Nc1ccccc1C(=O)C(=O)Nc1ccc(C(=O)NCC2CCCO2)cc1 (stereo not given) | > 42 µM (inactive)
61 | COc1ccc(OCC(=O)Nc2ccc(C)cc2)cc1 | > 42 µM (inactive)
62 | COC(=O)c1cc2occc2n1Cc1nc(-c2ccccc2C)oc1C | > 42 µM (inactive)
63 | CCOC(=O)C1=C(C)NC(=O)CC1c1cc2c(cc1[N+](=O)[O-])OCO2 (stereo not given) | > 42 µM (inactive)
64 | COc1cccc(OC)c1C(=O)N1CCN(Cc2ccccc2C)CC1 | > 42 µM (inactive)
65 | CS(=O)(=O)C1=NSC2=NC(=O)/C(=C\c3ccc(OS(=O)(=O)c4ccccc4)cc3)C(=N)N21 | > 42 µM (inactive)
66 | Cc1ccc(C(=O)N/C(=C\c2cccs2)C(=O)NCc2ccncc2)cc1 | > 42 µM (inactive)

Row | Compound | AC50
67 | S=C(Nc1ccc(Cl)cc1)N1CCN(Cc2ccccc2)CC1 | > 42 µM (inactive)
68 | CN(C)CCOC(c1ccc(Cl)cc1)c1ccccn1 (stereo not given) | > 42 µM (inactive)
69 | COc1ccc(-c2cc(C(F)(F)F)n3ncc(C(=O)O)c3n2)cc1OC | > 42 µM (inactive)
70 | CSc1cccc(N2C(=O)C3CCCN3C2=S)c1 (stereo not given) | > 42 µM (inactive)
71 | CCc1cc(/C(Cc2ccccn2)=N\O)c(O)cc1O | > 42 µM (inactive)
72 | COc1ccc(C)cc1NC(=S)N1CCN(c2ccccn2)CC1 | > 42 µM (inactive)
73 | Cc1cccc(NS(=O)(=O)c2ccc3[nH]c(=O)cc(C(=O)O)c3c2)c1 | > 21 µM (inactive)
74 | CCCCOCCCNS(=O)(=O)Cc1ccccc1 | > 42 µM (inactive)
75 | CC(c1ccccn1)N(CCN(C)C)C(=S)Nc1cccc(F)c1 (stereo not given) | > 42 µM (inactive)
76 | CN(CP(=O)(O)C(O)c1ccccc1)S(C)(=O)=O (stereo not given) | > 42 µM (inactive)
77 | Cc1cc(C)c(OCC(=O)N/N=C/c2ccco2)c(C)c1 | > 42 µM (inactive)
78 | N#CCCN(Cc1cccnc1)C(=O)Nc1cccc(Cl)c1 | > 42 µM (inactive)
79 | Cc1cc(NC(=O)c2ccc3c(c2)C(=O)N(C(C)(C)C)C3=O)no1 | > 42 µM (inactive)
80 | O=S(=O)(c1ccccc1)N1CCN(c2nc3ccccc3s2)CC1 | > 42 µM (inactive)
81 | O=C(NC1CCCCC1)N(Cc1cc2cc3c(cc2[nH]c1=O)OCCO3)C1CCCCC1 | > 42 µM (inactive)
82 | CC1CCN(CCCCOc2cccc(C(C)C)c2)CC1 | > 42 µM (inactive)
83 | COc1ccc(/C=C2\SC(=S)N(CCCC(=O)Nc3cc(C)on3)C2=O)cc1OC | > 42 µM (inactive)
84 | CC(C(=O)NCCN1CCOCC1)(c1ccccc1)c1ccccc1 | > 42 µM (inactive)
85 | Cc1ccc(N=c2ssnc2Cl)cc1 | 3.13 µM
